From patent US10137122B2, “Kinase inhibitors and methods of use thereof” (priority 2012, dated 2018)
Entries after “also recorded” stand apart in the source; their conditions may differ. Like-named read-outs stand apart in the source and are kept apart here.

What was measured:
[1] = test system: TCF/LEF reporter in HEK293-pBARL cells; conditions: read-out: TCF/LEF EC50
Protocol: (§1) HEK293-pBARL cells were derived from HEK293 cells and they stably expressed a firefly-luciferase reporter gene driven by a promoter containing 12 copies of TCF/LEF binding sequences. These cells were maintained in DMEM and supplemented with 10% FBS and 1% penicillin-streptomycin (Invitrogen). Reporter gene assays were conducted in anti-biotic free media. […] These cells also contained a renilla-luciferase reporter gene driven by the ubiquitous EF1α promoter as a control. HEK293-pBarl reporter cell lines were seeded into 384-well culture plates (Corning) at 6000 cells/well. 24 hours after plating, cells were treated overnight with relevant compounds and assayed using DualGlo assay kit (Promega). Luminescent intensities were read by EnVision (PerkinElmer, Waltham, Mass.). Firefly luciferase intensity is normalized by renilla luciferase intensity.
(§2) Cells were cultured in 384 well plates to appropriate density (40 μl total plating volume). 24 hours after plating, cells were treated with 100 nl compounds. 24 hours after incubation with compounds (48 hours after plating), assay reagents were prepared by mixing Luciferase Assay solution with Luciferase substrate and Stop & Glo solution to Stop & Glo substrate (extra reagents can be aliquoted and frozen for future use and are stable for at least one freeze/thaw cycle). […] The plate was spun down and 10 minutes were allowed for signal stabilization. Luciferase signal on the Perkin Elmer EnVision using the following parameters: Distance between plate & detector (mm)=0.2; Measurement time(s)=0.1; Glow (CT2) correction factor=0. Once the initial data is secure, a volume of Stop & Glo was added equal to each well equal to the volume of Luciferase reagent added above (If 10 μl Luciferase Reagent was added, 10 μl Stop & Glo was also added). The plate was spun down and 10 minutes were allowed for signal stabilization. The plate was read on the EnVision using the same parameters detailed above.

CDK5/p25 = CDK5/p25 (Homo sapiens (Human), UniProt Q00535)
Protocol: Biochemical characterization of these synthesized compounds were assayed against GSK3β and CDK5/p25, with CDK5/p25 serving as a counter target of GSK3β selectivity. […] The effects of these compounds on survival of SH-SY5Y pathophysiology cells were also monitored.

[2] = test system: β-catenin nuclear translocation in U2-OS cells; test: β-Catenin nuclear localization assay; type: cell-based; conditions: read-out: beta-Catenin translocation EC50
Protocol: β-Catenin Nuclear Localization Assay
U2-OS cells stably expressing two complimentary β-galactosidase fragments (one part on β-Catenin and the other constitutively expressed in the cell nucleus) were maintained in DMEM F12 supplemented with 10% FBS. When β-catenin translocates to the nucleus, the complimentary fragments form a complete β-galactosidase, the amount of which is then quantified by β-galactosidase activity (DiscoveRx). Cells were seeded in a 384-well CulturPlate (Perkin Elmer, Boston, Mass.) with 10,000 per well in 20 μL DMEM F12 containing 10% FCS, 100 U/ml penicillin and 100 μg/mL streptomycin. After overnight incubation at 37° C., cells were stimulated with 100 nL test compound/well and then returned to the incubator for 6 h. Cells were disrupted using 12 μL substrate-containing lysis buffer from the PathHunter Detection Kit in the formulation specified by the supplier (DiscoveRx). Plates were incubated in the dark for 1 h at room temperature before measurement of β-galactosidase activity (luminescence) on an EnVision plate reader (PerkinElmer, Waltham, Mass.).

[3] = test system: phospho-Tau (Ser199) in SH-SY5Y cells; test: Tau phosphorylation assay (phospho-Tau Ser199 ELISA); type: cell-based, human; conditions: read-out: p-Tau Inhibition ELISA EC50 SH-SY5Y
Protocol: Tau Phosphorylation and Total Tau Assay
SH-SY5Y cells were maintained in DMEM supplemented with 10% heat-inactivated FBS and 1% penicillin-streptomycin (Invitrogen) unless otherwise stated. ELISA kits for phospho-Tau (Ser199) and total Tau detection were purchased from Invitrogen (KHB0041, and KHB7041 respectively). Briefly, SH-SY5Y cells were seeded at 50,000 cells/200 μL/well in 96 well plates and after overnight incubation, treated with various doses of chemical compounds at 0.2 μL/well. The next day cells were washed with PBS twice before being lysed in 100 μL Lysis buffer/well. 50 μL of cell lysate of each sample was transferred to an ELISA vial coated with the capture antibody, and the mixture was incubated at room temperature for 2 hours, before the supernatant was aspired, and each vial washed four times. 100 μL of detection antibody was then added to each well, incubated for 1 hour, and then washed four times. […] Data were scaled using the positive and neutral controls and fitted for IC50.
A standard protocol using an immunoassay kit to quantify total Tau protein and phospho-Tau (Ser199) protein in SH-SY5Y human neuroblastoma cells was employed. Human Tau (Total) ELISA kit (#KHB0041) and human phosphor-Tau (Ser199) ELISA kit were purchased from Invitrogen (#KHB7041)
50,000 cells were seeded in 200 μl per well in cell culture media (250,000 cells/ml). Cells were incubated overnight @37° C. Cells were induced with appropriate doses of inhibitors and incubated for approximately 24 hrs @37° C. Cell lysates were harvested by washing cells once with cold PBS and adding 100 μl cold lysis buffer and pipette up and down vigorously. Lysate was transferred to 96 well PCR plate and centrifuged at 4,000 rpm for 20 minutes at 4° C.
Well strips were warmed and inserted into the frame. 100μ of standard diluent buffer were loaded into ZERO wells, and 100 ul of each standard concentrations (both total Tau and pTau) were loaded into wells in duplicate. Samples were loaded to each well that would be analyzed for total Tau, 85 μl standard diluent buffer and 15 μl cell lysate were added. To each well that will be analyzed for pTau (Ser199) 50 μl standard diluent buffer+50 μl cell lysate were added. Plates were tapped gently on the side to mix. Certain wells were left empty for chromogen blank. Plates were covered and incubated for 2 hours at room temperature. Wells were aspirated 4 times (400 μl diluted wash buffer, left for 30 seconds, aspirated all wells; alternatively used automated plate washer and programmed in a 30 second hold between each cycle). 100 μl of detection antibody solution were added to each well except chromogen blanks. Anti-total Tau was added to wells being analyzed for total Tau, anti-pTau (Ser199) was added to wells being analyzed for pTau (Ser199), and plates were tapped gently on the side to mix. Plates were covered and incubated for 1 hour at room temperature, then wells were aspirated and washed 4 times as described above. 100 μl of anti-rabbit IgG HRP working solution (prepared ahead) were added to each well except chromogen blanks, and plates were covered and incubated for 30 minutes at room temperature, then wells were aspirated and washed 4 times as described above. 100 μl of stabilized chromogen were added to each well (the liquid turned blue). Plates were incubates for 30 minutes at room temperature in the dark, then 100 μl of stop solution were added to each well, and plates were tapped gently on the side to mix. Absorbance of each well was read at 450 nm (within 2 hours of adding stop solution).

[4] = test system: amphetamine-induced hyperactivity; test: Amphetamine-induced hyperactivity (AIH) in vivo; conditions: mice, systemic i.p., vs vehicle
[5] = Pharmacokinetics and brain distribution in mice; type: in vivo; conditions: single i.p. dose 30 mg/kg, male C57BL/6 mice
AML cell lines = test: AML cell morphology, May-Grunwald Giemsa staining; type: cell-based; conditions: three days after treatment, vs vehicle
Protocol: Compound 70 Induces Morphological Changes in AML Cell Lines Consistent with Myeloid Differentiation
On day three post-chemical treatment, cytospin preparations were performed. Changes in cellular morphology were evaluated by May-Grunwald Giemsa staining (Sigma Aldrich). Images were acquired by light microscopy at 400× magnification.

HL-60 and U937 cells = test: GE-HTS 32-gene myeloid differentiation signature; type: cell-based; conditions: three days treatment
Protocol: HL-60 and U937 cells were treated for three days with compound 70 or vehicle. A 32-gene differentiation signature was quantified by the LMA/bead-based approach and a Weighted Summed Score (Differentiation Score) calculated for all genes was determined for each condition. Error bars denote the mean±SD of 8 replicates and statistical significance of the differences between these differentiation scores was derived using a one-way ANOVA with a Bonferroni correction.
Compound 70 Induces a Gene Expression Signature in AML Cell Lines Consistent with Myeloid Differentiation […]

[6] = test system: TCF/LEF reporter in HEK293-pBARL cells; test: cells; conditions: Homo sapiens
Protocol: as §1, §2

[7] = mouse plasma, 5 hours
GSK3α = GSK3α (Homo sapiens (Human), UniProt P49840)
GSK3α, sequence (P49840 whole entry): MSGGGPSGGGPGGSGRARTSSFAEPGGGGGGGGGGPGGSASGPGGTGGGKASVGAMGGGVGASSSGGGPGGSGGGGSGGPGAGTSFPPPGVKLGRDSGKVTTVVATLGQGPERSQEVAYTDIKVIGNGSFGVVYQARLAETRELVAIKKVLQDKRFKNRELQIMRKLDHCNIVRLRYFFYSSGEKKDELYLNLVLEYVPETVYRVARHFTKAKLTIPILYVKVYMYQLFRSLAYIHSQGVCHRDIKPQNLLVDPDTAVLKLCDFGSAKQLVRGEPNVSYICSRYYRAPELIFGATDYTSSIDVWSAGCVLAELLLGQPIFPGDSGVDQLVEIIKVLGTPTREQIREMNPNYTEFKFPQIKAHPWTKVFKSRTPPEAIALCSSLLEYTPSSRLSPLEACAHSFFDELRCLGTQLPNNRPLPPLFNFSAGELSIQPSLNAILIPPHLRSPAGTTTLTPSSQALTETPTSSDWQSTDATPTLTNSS
Protocol: GSK3β Microfluidic Mobility-Shift Assay
Reactions were terminated by the addition of 10 mM EDTA. Substrate and product were separated electrophoretically and fluorescence intensity of the substrate and product was determined by Labchip EZ Reader II (Caliper Life Sciences, MA). The kinase activity was measured as percent conversion. The reactions were performed in duplicate for each sample. […] The results were analyzed by Genedata Assay Analyzer. The percent inhibition was plotted against the compound concentration and the IC50 value was determined from the logistic dose-response curve fitting.

[8] = mouse, microsomes, 1 h
[9] = HEK293, read-out: TCF/LEF EC50 (μM)

CDK5/p25, sequence (Q00535 whole entry, species assumed): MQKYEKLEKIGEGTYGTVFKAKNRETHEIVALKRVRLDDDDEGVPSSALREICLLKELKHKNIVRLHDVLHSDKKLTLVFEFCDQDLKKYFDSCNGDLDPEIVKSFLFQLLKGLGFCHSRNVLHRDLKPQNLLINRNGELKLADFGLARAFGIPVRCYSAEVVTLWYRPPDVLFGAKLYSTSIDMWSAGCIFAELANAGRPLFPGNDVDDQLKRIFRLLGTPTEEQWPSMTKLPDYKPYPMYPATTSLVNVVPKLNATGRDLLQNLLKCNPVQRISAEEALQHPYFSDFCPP
CDK5/p25, sequence (Q15078 99-307 partner, species assumed): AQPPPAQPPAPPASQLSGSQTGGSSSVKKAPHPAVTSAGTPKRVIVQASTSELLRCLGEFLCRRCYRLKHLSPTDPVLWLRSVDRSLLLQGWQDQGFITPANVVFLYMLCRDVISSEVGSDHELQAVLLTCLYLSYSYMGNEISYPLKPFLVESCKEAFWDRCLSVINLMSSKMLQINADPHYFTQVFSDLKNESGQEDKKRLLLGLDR

CC1(C)CC(=O)C2=C(C1)Nc1n[nH]c(C(F)(F)F)c1C2c1cc(F)ccc1C(F)(F)F (stereo not shown) [Compound 64]
EC50 [1]: > 25 µM

Cc1[nH]nc2c1C(c1ccccc1Br)C1=C(CC(C)(C)CC1=O)N2 (stereo not shown) [Compound 16]
ADP Glo Assay GSK3β vs CDK5 fold selectivity (CDK5/p25): 14X

COc1ccccc1C1C2=C(CC(C)(C)CC2=O)Nc2n[nH]c(C(C)C)c21 (stereo not shown) [Compound 49]
EC50 [2]: > 50 µM | ADP Glo Assay GSK3β vs CDK5 fold selectivity (CDK5/p25): 14X | EC50 [1]: > 25 µM

Cc1[nH]nc2c1C(C1CCCCC1)C1=C(CC(C)(C)CC1=O)N2 (stereo not shown) [Compound 44]
EC50 [2]: > 50 µM | EC50 [1]: > 25 µM

COc1ccccc1C1C2=C(CCC(C)(C)C2=O)Nc2n[nH]c(C)c21 (stereo not shown) [Compound 45]
EC50 [2]: > 50 µM | ADP Glo Assay GSK3β vs CDK5 fold selectivity (CDK5/p25): 20X | EC50 [1]: > 25 µM

CC1(C)CC(=O)C2=C(C1)Nc1n[nH]c(C(F)(F)F)c1C2c1ccc(F)cc1C(F)(F)F (stereo not shown) [Compound 65]
ADP Glo Assay GSK3β vs CDK5 fold selectivity (CDK5/p25): 130X | EC50 [1]: > 25 µM

CC1(C)CC(=O)C2=C(C1)Nc1n[nH]c(C(F)(F)F)c1C2(C)c1ccccc1 (single isomer, unassigned) [Compound 70, 4,7,7-trimethyl-4-phenyl-3-(trifluoromethyl)-6,7,8,9-tetrahydro-2H-pyrazolo[3,4-b]quinolin-5(4H)-one]
EC50 ([3]; Homo sapiens, SH-SY5Y): 0.819 µM | effect on amphetamine-induced hyperactivity, intraperitoneal injection [4]: attenuate amphetamine-induced hyperactivity | pharmacokinetic profile (systemic exposure and brain distribution) compared to CHIR99021 [5]: improved pharmacokinetic profile | morphological evidence of AML differentiation (AML cell lines): induces morphological evidence of AML (acute myeloid leukemia) differentiation | morphological evidence of AML differentiation (AML cell lines; listed as compound 70): demonstrated cellular differentiation | AML differentiation by GE-HTS signature (HL-60 and U937 cells): induced a gene expression signature in AML cell lines consistent with myeloid differentiation; also recorded: induces AML (acute myeloid leukemia) differentiation by GE-HTS signature | EC50 [6, 9]: 1.86 µM

CC1(C)CC(=O)C2=C(C1)Nc1n[nH]c(C(F)(F)F)c1C2(C)c1ccccc1 (racemic) [Compound 68, 4,7,7-trimethyl-4-phenyl-3-(trifluoromethyl)-6,7,8,9-tetrahydro-2H-pyrazolo[3,4-b]quinolin-5(4H)-one]
EC50 ([2]; Homo sapiens, U2OS): 10.8 µM | ADP Glo Assay GSK3β vs CDK5 fold selectivity (CDK5/p25): 244X | EC50 [6, 9]: 7.77 µM

COc1ccccc1C1C2=C(CC(C)(C)CC2=O)Nc2n[nH]c(C(C)(C)C)c21 (stereo not shown) [Compound 50]
EC50 [2]: > 50 µM | EC50 [1]: > 25 µM

Cc1[nH]nc2c1C(C1CC1)C1=C(CC(C)(C)CC1=O)N2 (stereo not shown) [Compound 43]
EC50 [3]: > 30 µM | EC50 [2]: > 50 µM | EC50 [1]: > 25 µM

CC1(C)CC(=O)C2=C(C1)Nc1n[nH]cc1[C@]2(C)c1ccccc1 (racemic) [Compound 108]
Plasma stability % remaining [7]: 96.6%

COc1ccccc1C1C2=C(CC(C)(C)CC2=O)Nc2n[nH]cc21 (stereo not shown) [Compound 47]
ADP Glo Assay GSK3β vs CDK5 fold selectivity (CDK5/p25): 34X

CCc1[nH]nc2c1C(c1ccccc1OC)C1=C(CC(C)(C)CC1=O)N2 (stereo not shown) [Compound 48]
ADP Glo Assay GSK3β vs CDK5 fold selectivity (CDK5/p25): 35X

Cc1[nH]nc2c1C(C)(c1cccc(C#N)c1)C1=C(CC(C)(C)CC1=O)N2 (racemic) [Compound 95, 3-(1,6,6,9-tetramethyl-8-oxo-4,5,6,7,8,9-hexahydro-2H-pyrazolo[3,4-b]quinolin-9-yl)benzonitrile]
EC50 ([3]; Homo sapiens, SH-SY5Y): 6.35 µM | Plasma stability % remaining [7]: 99.0%

Cc1ccccc1C1C2=C(CC(C)(C)CC2=O)Nc2n[nH]c(C)c21 (stereo not shown) [Compound 17, 3,7,7-trimethyl-4-(o-tolyl)-6,7,8,9-tetrahydro-2H-pyrazolo[3,4-b]quinolin-5(4H)-one]
EC50 ([2]; Homo sapiens, U2OS): > 50 µM | IC50 (GSK3α): < 100 nM | ADP Glo Assay GSK3β vs CDK5 fold selectivity (CDK5/p25): 14X | EC50 [6, 9]: > 25 µM

Cc1[nH]nc2c1C(c1cccc(C(F)(F)F)c1)C1=C(CC(C)(C)CC1=O)N2 (stereo not shown) [Compound 30, 3,7,7-trimethyl-4-(3-(trifluoromethyl)phenyl)-6,7,8,9-tetrahydro-2H-pyrazolo[3,4-b]quinolin-5(4H)-one]
EC50 ([3]; Homo sapiens, SH-SY5Y): 4.68 µM | EC50 ([2]; Homo sapiens, U2OS): 11.2 µM | EC50 [6, 9]: 7.67 µM

CC1(C)CC(=O)C2=C(C1)Nc1n[nH]c(C3CC3)c1C2(C)c1ccccc1 (racemic) [Compound 113]
EC50 ([3]; Homo sapiens, SH-SY5Y): 4.8 µM | Plasma stability % remaining [7]: 90.5%

CC1(C)CC(=O)C2=C(C1)Nc1n[nH]c(C(F)(F)F)c1C2c1cc(F)ccc1OC(F)(F)F (stereo not shown) [Compound 61]
EC50 [1]: > 25 µM

COc1ccccc1C1C2=C(CCCC2=O)Nc2n[nH]c(C)c21 (stereo not shown) [Compound 46]
EC50 [2]: > 50 µM | ADP Glo Assay GSK3β vs CDK5 fold selectivity (CDK5/p25): 6X | EC50 [1]: > 25 µM

CC1(C)CC(=O)C2=C(C1)Nc1n[nH]c(C(F)(F)F)c1C2c1cc(F)ccc1F (stereo not shown) [Compound 60]
EC50 [1]: > 25 µM

COc1ccccc1C1C2=C(CC(C)(C)CC2=O)Nc2n[nH]c(-c3ccccc3)c21 (stereo not shown) [Compound 51]
EC50 [2]: > 50 µM | EC50 [1]: > 25 µM

Cc1[nH]nc2c1C(c1cccc3nonc13)C1=C(CC(C)(C)CC1=O)N2 (stereo not shown) [Compound 41, 4-(benzo[c][1,2,5]oxadiazol-4-yl)-3,7,7-trimethyl-6,7,8,9-tetrahydro-2H-pyrazolo[3,4-b]quinolin-5(4H)-one]
EC50 ([3]; Homo sapiens, SH-SY5Y): 2.27 µM | EC50 ([2]; Homo sapiens, U2OS): 11.8 µM | IC50 (GSK3α): < 100 nM | ADP Glo Assay GSK3β vs CDK5 fold selectivity (CDK5/p25): 51X | EC50 [6, 9]: 6.7 µM

Cc1[nH]nc2c1C(C)C1=C(CC(C)(C)CC1=O)N2 (stereo not shown) [Compound 42]
EC50 [2]: > 50 µM | ADP Glo Assay GSK3β vs CDK5 fold selectivity (CDK5/p25): 23X | EC50 [1]: > 25 µM

COc1ccccc1C1C2=C(CC3(CCCCC3)CC2=O)Nc2n[nH]c(C)c21 (stereo not shown) [Compound 56]
EC50 [2]: > 50 µM | EC50 [1]: > 25 µM

Cc1[nH]nc2c1C(c1ccccc1)(C(F)(F)F)C1=C(CC(C)(C)CC1=O)N2 (stereo not shown) [Compound 83]
Microsomal stability 60 min [8]: 51.5%

Cc1[nH]nc2c1[C@H](c1ccccc1C(F)(F)F)C1=C(CC(C)(C)CC1=O)N2 (stereo in doubt) [Compound 28, 3,7,7-trimethyl-4-(2-(trifluoromethyl)phenyl)-6,7,8,9-tetrahydro-2H-pyrazolo[3,4-b]quinolin-5(4H)-one]
EC50 ([3]; Homo sapiens, SH-SY5Y): 1.8 µM | EC50 ([2]; Homo sapiens, U2OS): 6.32 µM | EC50 [6, 9]: 4.8 µM

CC1(C)CC(=O)C2=C(C1)Nc1n[nH]c(C(F)(F)F)c1C2c1ccccc1F (stereo not shown) [Compound 58]
EC50 [1]: > 25 µM

Cc1[nH]nc2c1C(c1ccccc1C(F)(F)F)C1=C(CC(C)(C)CC1=O)N2 (racemic) [Compound 27, 3,7,7-trimethyl-4-(2-(trifluoromethyl)phenyl)-6,7,8,9-tetrahydro-2H-pyrazolo[3,4-b]quinolin-5(4H)-one]
EC50 ([3]; Homo sapiens, SH-SY5Y): 4.24 µM | EC50 ([2]; Homo sapiens, U2OS): 12 µM | ADP Glo Assay GSK3β vs CDK5 fold selectivity (CDK5/p25): 34X | EC50 [6, 9]: 9.59 µM

CSc1ccccc1C1C2=C(CC(C)(C)CC2=O)Nc2n[nH]c(C)c21 (stereo not shown) [Compound 25, 3,7,7-trimethyl-4-(2-(methylthio)phenyl)-6,7,8,9-tetrahydro-2H-pyrazolo[3,4-b]quinolin-5(4H)-one]
EC50 ([3]; Homo sapiens, SH-SY5Y): 2.85 µM | EC50 ([2]; Homo sapiens, U2OS): 10.9 µM | EC50 [6, 9]: 4.34 µM

COc1ccccc1[C@H]1C2=C(CC(C)(C)CC2=O)Nc2n[nH]c(C(F)(F)F)c21 [Compound 55, (S)-4-(2-methoxyphenyl)-7,7-dimethyl-3-(trifluoromethyl)-6,7,8,9-tetrahydro-2H-pyrazolo[3,4-b]quinolin-5(4H)-one]
EC50 ([3]; Homo sapiens): > 30 µM | EC50 ([2]; Homo sapiens, U2OS): > 50 µM | EC50 ([6]; HEK293, read-out: TCF/LEF EC50 (μM), HEK293 reporter cells): > 25 µM
